Publication PMC8843100, “Development of newly synthesised quinazolinone-based CDK2 inhibitors with potent efficacy against melanoma” (Journal of Enzyme Inhibition and Medicinal Chemistry, 2022)

Legend:
Experiment in all cases: NCI-60 single dose screen, sulforhodamine B
Format in all cases: cell-based, human
786-0 = details: Renal cancer 786-0; single dose 10^−5 M
Experimental: (§1) In this research, all of the newly synthesised quinazolinones were subjected to in vitro anticancer screening by the National Cancer Institute (USA) against 60 different human cell lines including leukaemia, non-small cell lung cancer, colon cancer, CNS cancer, melanoma, ovarian cancer, renal cancer, prostate cancer, and breast cancer. The tested compounds were evaluated at a single dose (10^−5 M). […] Regarding the benzenesulfonamide counterparts, the introduction of an electron-withdrawing group on the benzenesulfonamide moiety increased the inhibitory activity on the glioblastoma cell line SNB-75 as depicted by the chloro derivative 5c (GI% = 63.09) which was higher than that of the unsubstituted derivative 5a (GI% = 40.06) and the methyl derivative 5b (GI% = 33.03).
(§2) 1. Cytotoxicity screening against a panel of 60 human tumor cell lines
(§3) All the compounds were selected for NCI-60 Human Tumor Cell Lines Screen by the Developmental Therapeutics Program (DTP) at the National Cancer Institute (NCI), Maryland, USA. The operation of this screen utilizes 60 different human tumor cell lines, representing leukemia, non-small-cell lung cancer, colon cancer, CNS cancer, melanoma, ovarian cancer, renal cancer, prostate cancer and breas t cancer.
(§4) The compounds were supplied as dry powder and a single concentration is tested in all 60 cell lines at a single dose of 10 µM solution in dimethyl sulfoxide (DMSO) using Sulforhodamine B assay. Briefly, cells are seeded in 96 well plates at an appropriate density and incubated for 1 day. After 1 day, some of the plates are processed to determine the density time zero. To the remaining plates, compounds are added at 10 µM concentration. Plates are incubated a further 2 days, then fixed and staine d with sulphorhodamine B. Growth inhibition is calculated relative to cells without drug treatment and the time zero control. The use of a time zero control allows the determination of cell kill as well as net growth inhibition. […]

A498 = details: Renal cancer A498; single dose 10^−5 M
Experimental: as §1, §2, §3, §4

A549/ATCC = details: Non-small cell lung cancer A549/ATCC; single dose 10^−5 M
Experimental: as §1, §2, §3, §4

CCRF-CEM = details: Leukaemia CCRF-CEM; single dose 10^−5 M
Experimental: as §1, §2, §3, §4

DU-145 = details: Prostate cancer DU-145; single dose 10^−5 M
Experimental: as §1, §2, §3, §4

EKVX = details: Non-small cell lung cancer EKVX; single dose 10^−5 M
Experimental: as §1, §2, §3, §4

HCC-2998 = details: Colon cancer HCC-2998; single dose 10^−5 M
Experimental: as §1, §2, §3, §4

HCT-116 = details: Colon cancer HCT-116; single dose 10^−5 M
Experimental: as §1, §2, §3, §4

HOP-62 = details: Non-small cell lung cancer HOP-62; single dose 10^−5 M
Experimental: as §1, §2, §3, §4

HOP-92 = details: Non-small cell lung cancer HOP-92; single dose 10^−5 M
Experimental: as §1, §2, §3, §4

HT29 = details: Colon cancer HT29; single dose 10^−5 M
Experimental: as §1, §2, §3, §4

K-562 = details: Leukaemia K-562; single dose 10^−5 M
Experimental: as §1, §2, §3, §4

KM12 = details: Colon cancer KM12; single dose 10^−5 M
Experimental: as §1, §2, §3, §4

LOX IMVI = details: Melanoma LOX IMVI; single dose 10^−5 M
Experimental: as §1, §2, §3, §4

M14 = details: Melanoma M14; single dose 10^−5 M
Experimental: as §1, §2, §3, §4

MDA-MB-435 = details: Melanoma MDA-MB-435; single dose 10^−5 M
Experimental: as §1, §2, §3, §4

NCI-H226 = details: Non-small cell lung cancer NCI-H226; single dose 10^−5 M
Experimental: as §1, §2, §3, §4

NCI-H23 = details: Non-small cell lung cancer NCI-H23; single dose 10^−5 M
Experimental: as §1, §2, §3, §4

NCI-H322M = details: Non-small cell lung cancer NCI-H322M; single dose 10^−5 M
Experimental: as §1, §2, §3, §4

OVCAR-4 = details: Ovarian cancer OVCAR-4; single dose 10^−5 M
Experimental: as §1, §2, §3, §4

OVCAR-5 = details: Ovarian cancer OVCAR-5; single dose 10^−5 M
Experimental: as §1, §2, §3, §4

PC-3 = details: Prostate cancer PC-3; single dose 10^−5 M
Experimental: as §1, §2, §3, §4

SF-268 = details: CNS cancer SF-268; single dose 10^−5 M
Experimental: as §1, §2, §3, §4

SF-539 = details: CNS cancer SF-539; single dose 10^−5 M
Experimental: as §1, §2, §3, §4

SK-MEL-28 = details: Melanoma SK-MEL-28; single dose 10^−5 M
Experimental: as §1, §2, §3, §4

SK-MEL-2 = details: Melanoma SK-MEL-2; single dose 10^−5 M
Experimental: as §1, §2, §3, §4

SK-MEL-5 = details: Melanoma SK-MEL-5; single dose 10^−5 M
Experimental: as §1, §2, §3, §4

SNB-19 = details: CNS cancer SNB-19; single dose 10^−5 M
Experimental: as §1, §2, §3, §4

SW-620 = details: Colon cancer SW-620; single dose 10^−5 M
Experimental: as §1, §2, §3, §4

T-47D = details: Breast cancer T-47D; single dose 10^−5 M
Experimental: as §1, §2, §3, §4

TK-10 = details: Renal cancer TK-10; single dose 10^−5 M
Experimental: as §1, §2, §3, §4

UO-31 = details: Renal cancer UO-31; single dose 10^−5 M
Experimental: as §1, §2, §3, §4

| SMILES | GI% at 10^−5 M (786-0) | GI% at 10^−5 M (A498) | GI% at 10^−5 M (A549/ATCC) | GI% at 10^−5 M (CCRF-CEM) | GI% at 10^−5 M (DU-145) | GI% at 10^−5 M (EKVX) | GI% at 10^−5 M (HCC-2998) | GI% at 10^−5 M (HCT-116) | GI% at 10^−5 M (HOP-62) | GI% at 10^−5 M (HOP-92) | GI% at 10^−5 M (HT29) | GI% at 10^−5 M (K-562) | GI% at 10^−5 M (KM12) | GI% at 10^−5 M (LOX IMVI) | GI% at 10^−5 M (M14) | GI% at 10^−5 M (MDA-MB-435) | GI% at 10^−5 M (NCI-H226) | GI% at 10^−5 M (NCI-H23) | GI% at 10^−5 M (NCI-H322M) | GI% at 10^−5 M (OVCAR-4) | further results |
| --- | --- | --- | --- | --- | --- | --- | --- | --- | --- | --- | --- | --- | --- | --- | --- | --- | --- | --- | --- | --- | --- |
| O=c1c2ccccc2nc(COc2ccccc2)n1N=CC=Cc1ccccc1 [Compound 6b, 2-(phenoxymethyl)-3-((3-phenylallylidene)amino)quinazolin-4(3H)-one] | – (– means GI < 10%) | – (– means GI < 10%) | – (– means GI < 10%) | 15.66% | – (– means GI < 10%) | 13.78% | – (– means GI < 10%) | – (– means GI < 10%) | – (– means GI < 10%) | – (– means GI < 10%) | – (– means GI < 10%) | – (– means GI < 10%) | – (– means GI < 10%) | 27.86% | – (– means GI < 10%) | – (– means GI < 10%) | – (– means GI < 10%) | – (– means GI < 10%) | – (– means GI < 10%) | 10.01% | GI% at 10^−5 M (OVCAR-5): – (– means GI < 10%); GI% at 10^−5 M (PC-3): 10.39%; GI% at 10^−5 M (SF-268): – (– means GI < 10%); GI% at 10^−5 M (SF-539): – (– means GI < 10%); GI% at 10^−5 M (SK-MEL-28): – (– means GI < 10%); GI% at 10^−5 M (SK-MEL-2): – (– means GI < 10%); GI% at 10^−5 M (SK-MEL-5): – (– means GI < 10%); GI% at 10^−5 M (SNB-19): 17.13%; GI% at 10^−5 M (SW-620): – (– means GI < 10%); GI% at 10^−5 M (T-47D): – (– means GI < 10%); GI% at 10^−5 M (TK-10): – (– means GI < 10%); GI% at 10^−5 M (UO-31): 10.2% |
| CN1CCN(CC(=O)Nn2c(COc3ccccc3)nc3ccccc3c2=O)CC1 [Compound 8a, 2–(4-methylpiperazin-1-yl)-N-(4-oxo-2-(phenoxymethyl)quinazolin-3(4H)-yl)acetamide] | – (– means GI < 10%) | 18.24% | – (– means GI < 10%) | 10.65% | – (– means GI < 10%) | 13.93% | 10.06% | 18.15% | – (– means GI < 10%) | – (– means GI < 10%) | 26.89% | 67.8% | 55.03% | 14.73% | 21.06% | 94.15% | 15.39% | – (– means GI < 10%) | – (– means GI < 10%) | – (– means GI < 10%) | GI% at 10^−5 M (OVCAR-5): – (– means GI < 10%); GI% at 10^−5 M (PC-3): – (– means GI < 10%); GI% at 10^−5 M (SF-268): – (– means GI < 10%); GI% at 10^−5 M (SF-539): 11.37%; GI% at 10^−5 M (SK-MEL-28): – (– means GI < 10%); GI% at 10^−5 M (SK-MEL-2): 12.84%; GI% at 10^−5 M (SK-MEL-5): 17.11%; GI% at 10^−5 M (SNB-19): 13.65%; GI% at 10^−5 M (SW-620): 42.80%; GI% at 10^−5 M (T-47D): 32.2%; GI% at 10^−5 M (TK-10): – (– means GI < 10%); GI% at 10^−5 M (UO-31): 29.32% |
| O=C(CN1CCN(c2ccccc2)CC1)Nn1c(COc2ccccc2)nc2ccccc2c1=O [Compound 8b, N-(4-oxo-2-(phenoxymethyl)quinazolin-3(4H)-yl)-2–(4-phenylpiperazin-1-yl)acetamid] | – (– means GI < 10%) | – (– means GI < 10%) | – (– means GI < 10%) | – (– means GI < 10%) | – (– means GI < 10%) | – (– means GI < 10%) | – (– means GI < 10%) | – (– means GI < 10%) | – (– means GI < 10%) | – (– means GI < 10%) | – (– means GI < 10%) | – (– means GI < 10%) | – (– means GI < 10%) | – (– means GI < 10%) | – (– means GI < 10%) | – (– means GI < 10%) | – (– means GI < 10%) | 10.01% | – (– means GI < 10%) | – (– means GI < 10%) | GI% at 10^−5 M (OVCAR-5): – (– means GI < 10%); GI% at 10^−5 M (PC-3): – (– means GI < 10%); GI% at 10^−5 M (SF-268): – (– means GI < 10%); GI% at 10^−5 M (SF-539): – (– means GI < 10%); GI% at 10^−5 M (SK-MEL-28): – (– means GI < 10%); GI% at 10^−5 M (SK-MEL-2): – (– means GI < 10%); GI% at 10^−5 M (SK-MEL-5): – (– means GI < 10%); GI% at 10^−5 M (SNB-19): – (– means GI < 10%); GI% at 10^−5 M (SW-620): – (– means GI < 10%); GI% at 10^−5 M (T-47D): – (– means GI < 10%); GI% at 10^−5 M (TK-10): – (– means GI < 10%); GI% at 10^−5 M (UO-31): 20.18% |
